Test results: PMC8398472, “Anticancer Diiron Vinyliminium Complexes: A Structure–Activity Relationship Study” (Pharmaceutics, 2021)

How the values were obtained:
[1] = Stability in DMSO-d6/D2O or D2O solution at 37 °C for 72 h (1H NMR); type: physicochemical; conditions: DMSO-d6/D2O (2:1 v/v), 72 h at 37 °C
Method: • (a) Solubility in D2O. A suspension of the selected diiron compound (3–5 mg) in a D2O solution (ca. 1 mL) containing Me2SO2 (3.36 × 10^−3 M) as internal standard was vigorously stirred at 21 °C for 1.5 h. The resulting saturated solution was filtered over celite, transferred into an NMR tube and then analyzed by ^1H NMR spectroscopy (delay time = 3 s; number of scans = 20). The concentration (solubility) was calculated by the relative integral (related to Cp and/or NMe signals) with respect to Me2SO2 (δ = 3.14 ppm). • (b) Stability in DMSO-d6/D2O solution. The selected diiron compound (ca. 4 mg) was added of 1 mL of D2O (3a,c) or DMSO-d6/D2O (2:1 v/v) mixture (2a,c, 3b, 4a–c, 5a–c, 6a–c, 7), containing Me2SO2 (3.36 × 10^−3 M). The resulting mixture was stirred for 30 min and then filtered over celite; the filtrated solution was transferred into an NMR tube. The sample was analyzed by ^1H NMR (time = 0) and then heated at 37 °C for 72 h. After cooling to room temperature, the solution was separated from a small amount of solid by filtration over celite, and the new ^1H NMR spectrum was recorded (delay time = 3 s; number of scans = 20). In every case, no newly formed organometallic species was detected. The amount of starting material in solution (% with respect to the initial spectrum) was calculated by the relative integral (vs. Cp and/or NMe signals) with respect to Me2SO2 as internal standard.

[2] = tested on: human ovarian carcinoma cisplatin-sensitive A2780; assay: Cytotoxicity, WST-1 cell viability assay, A2780; type: cell-based; conditions: for IC50: 72 h exposure; for Selectivity index (S.I.): ratio between IC50 for Balb/3T3 and IC50 for A2780
Method: In vitro cytotoxicity investigations were carried out by using human ovarian carcinoma cisplatin-sensitive A2780 (ECACC93112519), human ovarian carcinoma cisplatin-resistant A2780cisR (ECACC 93112517) and mouse embryo fibroblasts Balb/3T3 clone A31 (ATCC CCL-163) cell lines. A2780 and A2780cisR were purchased from the European Collection of Authenticated Cell Cultures (ECACC), and Balb/3T3 clone A31 cell line from the American Type Culture Collection (ATCC).
A2780 and A2780cisR cells were routinely cultured in RPMI 1640 (Merck) containing 2 mM of L-glutamine (Merck), 1% of penicillin/streptomycin solution (Merck—10 000 U mL^−1: 10 mg mL^−1), 10% of fetal bovine serum (Merck—FBS) and antimycotic (InvivoGen, USA), and Balb/3T3 clone A31 in Dulbecco’s modified Eagle medium (Merck—DMEM) supplemented with 4 mM of L-glutamine, 1% of penicillin/streptomycin solution, 10% of calf serum (Merck) and antimycotic. […] The cultures were maintained at 37 °C and in a 5% CO2-enriched atmosphere.
A2780, A2780cisR and Balb/3T3 clone A31 cells were seeded in 96-well tissue culture polystyrene plates at a concentration of 3 × 10^3, 6 × 10^3 and 1 × 10^3 cells per well, respectively. After overnight incubation, the cells were treated with different concentrations (0–100 µM) of the selected compounds for 72 h at 37 °C in a 5% atmosphere of CO2. Stock solutions of compounds were prepared in DMSO and sequentially diluted in medium (final DMSO concentration of 0.5%). […] At the end of the incubation time, cell viability was assessed by means of WST-1 tetrazolium salt reagent (Roche). Briefly, cells were incubated for 4 h with the tetrazolium salt reagent diluted 1:10, at 37 °C and 5% CO2. Measurements of formazan dye absorbance, which directly correlates with the number of viable cells, were carried out with a micro-plate reader (Biorad) at 450 nm, using 655 nm as reference wavelength. The 50% inhibitory concentration (IC50) refers to compound concentration at which 50% of cell death is observed with respect to the control. For each tested compound, assay was performed on triplicate. The concentration effect curves were generated by nonlinear regression curves (GraphPad Prism Software, 2021) and the data reported as mean ± standard deviation.

cytochrome c (Cyt c) = molecular target: T1, cytochrome c (Cyt c) (Equus caballus, UniProt P00004); assay: ESI-MS interaction with cytochrome c; type: binding; conditions: 24 h at 37 °C, protein-to-metal ratio 1:2, pH 6.8
T1 construct: purchased
Method: • (a) Sample preparation. Cytochrome c (Cyt c) was commercially available and used as received; the TrxR dodecapeptide (TrxR-pept) was synthesized as reported in the literature. The stock solutions of the selected iron-based complexes were prepared in DMSO up to a final concentration of 10^−2 M. The stock solution of TrxR-pept was prepared in LC-MS grade water by dissolving the required amount of lyophilized peptide to reach a final concentration of 10^−3 M. The stock solution of Cyt c 10^−3 M was prepared by dissolving the required amount of protein in 2 mM ammonium acetate solution at pH 6.8. In the interaction tests with TrxR-pept, opportune aliquots of each complex and TrxR-pept stock solutions were mixed and diluted with LC-MS grade water to 10^−4 M final concentration and a TrxR-pept/complex ratio of 1:1. For each iron-based complex/Cyt c pair, appropriate aliquots of the respective stock solutions were mixed and subsequently diluted with 2 mM ammonium acetate solution (pH 6.8) to a final protein concentration of 10^−4 M and a protein-to-metal molar ratio of 1:2. All the sample mixtures were incubated for 24 h at 37 °C. Subsequently, opportune dilutions were performed as detailed: • – the TrxR-pept containing solutions were further diluted with LC-MS grade water to a final TrxR-pept concentration of 10^−5 M and added with 0.1% v/v of formic acid just before infusion in the mass spectrometer; • – the protein-containing solutions were diluted with 2 mM ammonium acetate solution (pH 6.8) to a final protein concentration of 10^−6 M and added with 0.1% v/v of formic acid just before infusion. • (b) ESI-MS instrumental parameters. The ESI mass spectra were acquired using a TripleTOF® 5600^+ high-resolution mass spectrometer (Sciex, Framingham, MA, USA), with a DuoSpray® interface operating with an ESI probe. Respective ESI mass spectra were acquired through direct infusion at 7 μL min^−1 flow rate. The ESI source parameters were optimized for each biomolecule and were as follows: for TrxR dodecapeptide positive polarity, ionspray voltage floating 5500 V, temperature 0, ion source gas 1 (GS1) 35 L min^−1; ion source gas 2 (GS2) 0; curtain gas (CUR) 20 L min^−1, declustering potential (DP) 300 V, collision energy (CE) 10 V, range 1070–1600 m/z; for Cyt c positive polarity, ionspray voltage floating 5500 V, temperature 0, ion source gas 1 (GS1) 35 L min^−1; ion source gas 2 (GS2) 0; curtain gas (CUR) 20 L min^−1, declustering potential (DP) 180 V, collision energy (CE) 10 V, range 500–1800 m/z. For acquisition, Analyst TF software 1.7.1 (Sciex, Framingham, MA, USA) was used and deconvoluted spectra were obtained by using the Bio Tool Kit micro-application v.2.2 embedded in PeakView^TM software v.2.2 (Sciex, Framingham, MA, USA).

T1 sequence (P00004 whole entry): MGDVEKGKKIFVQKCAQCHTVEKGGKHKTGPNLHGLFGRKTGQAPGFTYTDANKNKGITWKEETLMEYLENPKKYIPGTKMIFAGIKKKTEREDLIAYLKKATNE

Substance | Stability % (residual % of starting material) [1] | IC50 [2] | Selectivity index (S.I.) [2] | Interaction with Cyt c (ESI-MS) (cytochrome c (Cyt c))
[Fe2Cp2(CO)(μ-CO){μ-η^1:η^3-C^3(Me)C^2(Me)C^1N(CH2Ph)2}]CF3SO3 [Compound 2c] | 87% | 1.91 ± 0.15 µM | 9 | substantial chemical inertness
[Fe2Cp2(CO)(μ-CO){μ-η^1:η^3-C^3(Me)C^2(Me)C^1NMe(2-naphthyl)}]CF3SO3 [Compound 7] | 66% | 2.2 ± 0.2 µM | 22 | substantial chemical inertness
[Fe2Cp2(CO)(μ-CO){μ-η^1:η^3-C^3(Me)C^2(Me)C^1NMe(4-C6H4OMe)}]CF3SO3 [Compound 6c] | 86% | 3.8 ± 0.4 µM | >26 | substantial chemical inertness
[Fe2Cp2(CO)(μ-CO){μ-η^1:η^3-C^3(Me)C^2(Me)C^1NMe(CH2Ph)}]CF3SO3 [Compound 5b] | 90% | 5.1 ± 0.3 µM | >19 | substantial chemical inertness
[Fe2Cp2(CO)(μ-CO){μ-η^1:η^3-C^3(Me)C^2(Me)C^1NMe(Cy)}]CF3SO3 [Compound 4c] | 95% | 1.8 ± 0.2 µM | 52 | substantial chemical inertness
[Fe2Cp2(CO)(μ-CO){μ-η^1:η^3-C^3(Me)C^2HC^1NMe(Cy)}]CF3SO3 [Compound 4a] | 95% | 3.3 ± 0.4 µM | >30 | substantial chemical inertness
[Fe2Cp2(CO)(μ-CO){μ-η^1:η^3-C^3(Ph)C^2HC^1NMe(4-C6H4OMe)}]CF3SO3 [Compound 6b] | 76% | 3.8 ± 0.4 µM | 10 | substantial chemical inertness
[Fe2Cp2(CO)(μ-CO){μ-η^1:η^3-C^3(Ph)C^2HC^1NMe(CH2CH = CH2)}]CF3SO3 [Compound 3b] | 68% | 6 ± 0.8 µM | >16 | substantial chemical inertness
